The values that follow come from ChEMBL document CHEMBL5113495, “Discovery of novel orexin receptor antagonists using a 1,3,5-trioxazatriquinane bearing multiple effective residues (TriMER) library” (Eur J Med Chem, 2022).

Activity calls are given as the source filed them.

Series [1] in a line: Metabolic stability in pooled human liver microsomes assessed as intrinsic clearance […] preincubated for 5 mins followed by NADPH addition and measured upto 60 mins by HPLC-MS/MS analysis. Type of series: ADME, Microsome. The note with it: time < 65 min, read-out: CLH.
Series [2] deals with Mus musculus. In words: Sleep inducing activity in C57BL/6J mouse assessed as decrease in total time of wakefulness during dark phase at 10 mg/kg, ip measured at 12 to 18 hrs by EEG/EMG analysis. Type of series: functional, organism-based. The note with it: time 12-18 hrs.
Series [3] can be described thus: Metabolic stability in pooled human liver microsomes assessed as half-life […] preincubated for 5 mins followed by NADPH addition and measured upto 60 mins by HPLC-MS/MS analysis. The note with it: time < 65 min. Type of series: ADME, Microsome.
For series [4], the target named is T1, Orexin/Hypocretin receptor type 1 (Homo sapiens, UniProt O43613).
T1 sequence (O43613 whole entry): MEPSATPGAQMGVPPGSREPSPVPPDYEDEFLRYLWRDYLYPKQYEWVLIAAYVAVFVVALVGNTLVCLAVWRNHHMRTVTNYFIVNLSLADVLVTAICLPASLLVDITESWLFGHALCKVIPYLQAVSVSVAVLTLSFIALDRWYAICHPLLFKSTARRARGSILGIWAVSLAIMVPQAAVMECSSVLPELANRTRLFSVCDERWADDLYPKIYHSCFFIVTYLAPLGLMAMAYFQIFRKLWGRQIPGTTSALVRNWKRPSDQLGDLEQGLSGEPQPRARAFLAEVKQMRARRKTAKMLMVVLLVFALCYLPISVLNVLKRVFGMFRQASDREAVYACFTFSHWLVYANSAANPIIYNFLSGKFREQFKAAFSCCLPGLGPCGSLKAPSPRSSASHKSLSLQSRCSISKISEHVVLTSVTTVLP
In words: Antagonist activity at human OX1R expressed in CHO-K1 cells assessed as inhibition of orexin-A-induced increase in calcium mobilization preincubated for 15 mins followed orexin-A stimulation by Fura-2-AM dye based fluorescence assay. The class given is functional, cell-based. In general terms: Calcium assays in cells follow changes in intracellular calcium, usually with a dye or a luminescent sensor.

Series [5] relates to Mus musculus. In words: Sleep inducing activity in C57BL/6J mouse assessed as increase in total time of NREM sleep during dark phase at 10 mg/kg, ip measured at 12 to 18 hrs by EEG/EMG analysis. The class given is functional, organism-based. The note with it: time 12-18 hrs.
Series [6] can be described thus: Apparent permeability across apical to basolateral side in human Caco-2 cells at pH 7.4 in the presence of 1% BSA. The class given is ADME, cell-based. The conditions noted are these: Caco-2, pH 7.4.
Series [7] can be described thus: Drug concentration in C57BL/6J mouse brain at 10 mg/kg, ip measured after 0.5 hrs by LC-MS/MS analysis. The class given is ADME, organism-based. The note with it: in vivo.
A further series deals with T2, Orexin receptor type 2 (Homo sapiens, UniProt O43614).
T2 sequence (O43614 whole entry): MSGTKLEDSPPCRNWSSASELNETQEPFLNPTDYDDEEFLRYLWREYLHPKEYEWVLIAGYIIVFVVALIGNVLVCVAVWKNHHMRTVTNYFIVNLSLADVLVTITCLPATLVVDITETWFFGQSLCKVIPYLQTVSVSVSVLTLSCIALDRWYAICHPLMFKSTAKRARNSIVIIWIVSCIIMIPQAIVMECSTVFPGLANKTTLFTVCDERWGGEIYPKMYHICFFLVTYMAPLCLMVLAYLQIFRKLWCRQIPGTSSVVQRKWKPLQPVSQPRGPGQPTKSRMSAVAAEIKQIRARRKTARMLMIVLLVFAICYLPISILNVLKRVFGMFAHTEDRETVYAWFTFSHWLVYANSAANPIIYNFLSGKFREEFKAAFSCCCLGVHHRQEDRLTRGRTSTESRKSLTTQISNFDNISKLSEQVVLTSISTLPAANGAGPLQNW
In words: Antagonist activity at human OX2R expressed in CHO-K1 cells assessed as inhibition of orexin-A-induced increase in calcium mobilization preincubated for 15 mins followed orexin-A stimulation by Fura-2-AM dye based fluorescence assay. Type of series: functional, cell-based.

Series [8] can be described thus: Apparent permeability across apical to basolateral side in human Caco-2 cells at pH 7.4. Type of series: ADME, cell-based. The conditions noted are these: Caco-2, pH 7.4. A general note: Caco-2 monolayers are a common model of the intestinal barrier.
Series [9] is described as follows: Passive apparent permeability in MDCK cells. Type of series: ADME, cell-based, Canis lupus familiaris. The note with it: dog.
In series [10] the test system is Mus musculus. In words: Effect on locomotor activity in ip dosed ICR mouse assessed as suppression of orexin-induced enhancement of locomotor activity pretreated with compound for 30 mins followed by orexin stimulation by infrared light beam-braking system locomotor recording system. Type of series: functional, organism-based. The conditions noted are these: dose 3-10 mg/kg, DDE = dose-dependent effect.

In general, half-life refers to the time needed for the level to fall by half in the phase considered. Broadly, the Ki is a measure of affinity in units of concentration, obtained from inhibition or displacement. As a reminder, the Papp A→B is how fast a substance crosses the layer from the apical side. With `COc1ccc(C(=O)Nc2cccc([C@]3(C)O[C@H]4CO[C@@H]5N4[C@H]3O[C@@]5(C)c3cccc(NC(=O)c4ccc(OC)cc4)c3)c2)cc1`, the microsomal CLint in series [1] stood at 184 µL/min/mg. The result with Mus musculus [2] and in the series on Mus musculus [5] was Active. Besides, the half-life in series [3] amounted to 38 min. Also, the Ki in series [4] came out at 3.99 nM. The Papp A→B in series [6] stood at 1.4 ×10⁻⁶ cm/s. Moreover, the Ct in series [7] was found to be 54.7 pmol/g.
Usually IC50 stands for the concentration that gives 50% inhibition. On to `C[C@]1(c2cccc(NC(=O)c3cccnc3)c2)O[C@H]2CO[C@@H]3N2[C@H]1O[C@]3(C)c1cccc(NC(=O)c2cccnc2)c1`, for which, on Orexin receptor type 2, the IC50 is above 10 µM. Besides, the Ki in series [4] stood at 52 nM.
With `COc1ccccc1C(=O)Nc1cccc([C@]2(C)O[C@@H]3N4[C@H](CO[C@H]42)O[C@@]3(C)c2cccc(NC(=O)c3ccccc3)c2)c1`, the Ki on Orexin receptor type 2 was found to be 56 nM; in series [4], 18 nM.
With `CN(C)c1ccc(C(=O)Nc2cccc([C@]3(C)O[C@H]4CO[C@@H]5N4[C@H]3O[C@@]5(C)c3cccc(NC(=O)c4ccc(N(C)C)cc4)c3)c2)cc1`, the IC50 (at Orexin receptor type 2; in [4]) was above 10 µM throughout.
Take `C[C@@]1(c2cccc(NC(=O)c3ccccn3)c2)O[C@H]2CO[C@@H]3N2[C@H]1O[C@@]3(C)c1cccc(NC(=O)c2ccccn2)c1`: the results for the Ki (at Orexin receptor type 2; in [4]) were 69.6 nM and 14.9 nM, respectively.
Consider `CC(C)(C)OC(=O)Nc1cccc([C@]2(C)O[C@H]3CO[C@@H]4N3[C@H]2O[C@@]4(C)c2cccc(NC(=O)OC(C)(C)C)c2)c1`, for which the figures for the Ki (on Orexin receptor type 2; in series [4]) were 180 nM and 34.2 nM, respectively.
For `C[C@@]1(c2cccc(NS(=O)(=O)c3ccccc3)c2)O[C@H]2CO[C@@H]3N2[C@H]1O[C@]3(C)c1ccc(NS(=O)(=O)c2ccccc2)cc1`, the Ki at Orexin receptor type 2 is 222 nM. The half-inhibitory concentration (IC50) in [4] was above 10 µM.
For the compound `CN(C)c1ccc(C(=O)Nc2cccc([C@@]3(C)O[C@H]4CO[C@@H]5N4[C@H]3O[C@]5(C)c3cccc(NC(=O)c4ccc(N(C)C)cc4)c3)c2)cc1`, on Orexin receptor type 2, the IC50 was above 10 µM. In addition, in series [4], the Ki came out at 3.88 nM.
On to `COc1cccc(C(=O)Nc2cccc([C@]3(C)O[C@@H]4N5[C@H](CO[C@H]53)O[C@@]4(C)c3cccc(NC(=O)c4ccccc4)c3)c2)c1`, for which the inhibition constant Ki at Orexin receptor type 2 was 5.38 nM; in series [4] it was 7.66 nM.
Turning to `COc1ccc(C(=O)Nc2cccc([C@]3(C)O[C@@H]4CO[C@H]5N4[C@@H]3O[C@@]5(C)c3cccc(NC(=O)c4ccc(OC)cc4)c3)c2)cc1`, the Ki in series [4] was 2.17 nM.
On to `COc1ccc(C(=O)Nc2cccc(C3(C)OC4COC5N4C3OC5(C)c3cccc(NC(=O)c4ccc(OC)cc4)c3)c2)cc1` (racemic), for which, in series [4], the Ki amounted to 4.93 nM.
Still for that read-out and setting: as for `COc1cccc(C(=O)Nc2cccc([C@@]3(C)O[C@H]4CO[C@@H]5N4[C@H]3O[C@]5(C)c3cccc(NC(=O)c4ccccc4OC)c3)c2)c1`, the figure is 32.8 nM.
Regarding `CN(C)c1cccc(C(=O)Nc2cccc([C@]3(C)O[C@H]4CO[C@@H]5N4[C@H]3O[C@@]5(C)c3cccc(NC(=O)c4cccc(N(C)C)c4)c3)c2)c1`, the IC50 (at Orexin receptor type 2; in [4]) was above 10 µM in each case.
In the case of `C[C@@]1(c2cccc(NC(=O)c3cccnc3)c2)O[C@H]2CO[C@@H]3N2[C@H]1O[C@@]3(C)c1cccc(NC(=O)c2cccnc2)c1`, the Ki is 261 nM at Orexin receptor type 2 and 691 nM in [4].
In the case of `COc1cccc(C(=O)Nc2cccc([C@@]3(C)O[C@H]4CO[C@@H]5N4[C@H]3O[C@]5(C)c3cccc(NC(=O)c4cccc(OC)c4)c3)c2)c1`, the half-maximal inhibitory concentration (IC50) at Orexin receptor type 2 is above 10 µM. Besides, in [4], the inhibitory constant (Ki) came to 2.86 nM.
On to `CN(C)c1cccc([C@]2(C)O[C@H]3CO[C@@H]4N3[C@H]2O[C@@]4(C)c2cccc(N(C)C)c2)c1`, for which the inhibition constant Ki on Orexin receptor type 2 stood at 655 nM. The IC50 in series [4] is above 10 µM.
For the compound `CN(C)c1ccccc1C(=O)Nc1cccc([C@]2(C)O[C@H]3CO[C@@H]4N3[C@H]2O[C@@]4(C)c2cccc(NC(=O)c3ccccc3N(C)C)c2)c1`, the IC50 (at Orexin receptor type 2; in series [4]) was above 10 µM in each case.
Take `COc1ccc(C(=O)Nc2cccc(C3(C)OC4COC5N4C3OC5(C)c3cccc(NC(=O)c4ccc(OC)cc4)c3)c2)cc1` (mixture of isomers): the Ki in series [4] is 11.7 nM.
Take `COc1ccc(C(=O)Nc2cccc([C@@]3(C)O[C@@H]4CO[C@H]5N4[C@@H]3O[C@]5(C)c3cccc(NC(=O)c4ccc(OC)cc4)c3)c2)cc1`: in [4], the Ki was 110 nM.
By Papp is commonly meant a coefficient for how fast a substance crosses the barrier. With `COc1ccc(C(=O)Nc2cccc([C@@]3(C)O[C@H]4CO[C@@H]5N4[C@H]3O[C@]5(C)c3cccc(NC(=O)c4ccc(OC)cc4)c3)c2)cc1`, the microsomal CLint in series [1] was 183 µL/min/mg. The Papp A→B in series [8] came to 11.9 ×10⁻⁶ cm/s. For the same compound, the Papp in series [9] was above 10 ×10⁻⁶ cm/s. For the same compound, the half-life in [3] was 39 min. Moreover, in the series with Mus musculus [10], the Activity entry is “Dde”. The Ki in series [4] was 1.87 nM. Besides, the Ct in series [7] was 33.9 pmol/g.
For `C[C@]1(c2cccc(NC(=O)c3ccncc3)c2)O[C@H]2CO[C@@H]3N2[C@H]1O[C@]3(C)c1cccc(NC(=O)c2ccncc2)c1`, at Orexin receptor type 2, the IC50 was above 10 µM. Also, the Ki in series [4] is 104 nM.
In the case of `C[C@@]1(c2cccc(NC(=O)c3ccccc3)c2)O[C@H]2CO[C@@H]3N2[C@H]1O[C@@]3(C)c1cccc(NC(=O)c2ccccc2)c1`, the figures for the Ki (on Orexin receptor type 2; in [4]) were 15.1 nM and 23.4 nM, respectively.
Take `CN(C)c1cccc(C(=O)Nc2cccc([C@@]3(C)O[C@H]4CO[C@@H]5N4[C@H]3O[C@]5(C)c3cccc(NC(=O)c4cccc(N(C)C)c4)c3)c2)c1`: the IC50 at Orexin receptor type 2 was above 10 µM. Further, the inhibition constant Ki in series [4] was 7.85 nM.
Turning to `C[C@@]1(c2cccc(NC(=O)c3ccncc3)c2)O[C@H]2CO[C@@H]3N2[C@H]1O[C@@]3(C)c1cccc(NC(=O)c2ccncc2)c1`, the Ki at Orexin receptor type 2 was 179 nM. Also, the IC50 in [4] is above 10 µM.
With `CN(C)c1ccccc1C(=O)Nc1cccc([C@@]2(C)O[C@H]3CO[C@@H]4N3[C@H]2O[C@]4(C)c2cccc(NC(=O)c3ccccc3N(C)C)c2)c1`, the IC50 at Orexin receptor type 2 was above 10 µM. Besides, in [4], the Ki turned out to be 634 nM.
Turning to `C[C@]1(c2cccc(NC(=O)c3ccccn3)c2)O[C@H]2CO[C@@H]3N2[C@H]1O[C@]3(C)c1cccc(NC(=O)c2ccccn2)c1`, on Orexin receptor type 2, the IC50 was above 10 µM. Further, the Ki in series [4] is 18.3 nM.
`C[C@]1(c2cccc(NC(=O)c3ccccc3)c2)O[C@H]2CO[C@@H]3N2[C@H]1O[C@]3(C)c1cccc(NC(=O)c2ccccc2)c1`: the 50% inhibitory concentration (IC50) at Orexin receptor type 2 is above 10 µM. For the same compound, the Ki in [4] is 25.4 nM.
